pKi: −log10 of the molar value.

Data on 22 compounds can be found in US10981894B2, “Melanocortin subtype-2 receptor (MC2R) antagonists and uses thereof” (Crinetics Pharmaceuticals, Inc., priority 2018, dated 2021).

The test deals with hMC2 receptor (Homo sapiens, UniProt Q01718). Kind of test: hMC2 membrane binding assay ([125I]ACTH (1-39) Tyr23, SPA). The conditions noted are these: crude hMC2R membranes from CRE-bla-CHO-K1 cells expressing hMC2 receptor and hMRAP; [125I]ACTH (1-39) Tyr23 0.2 nM; 1.5 hours at room temperature; read-out: MC2R binding potency. Also on record: scale not given here. As for the experimental part:
Crude membrane fractions are prepared from CRE-bla-CHO-K1 cells stably expressing hMC2 receptor and hMRAP accessory protein (Thermo Fisher). The cells are grown to 85-100% confluence on standard tissue culture dishes in GlutaMax DMEM growth media (Gibco) with following additives: 10% dialyzed FBS (Gemini), 0.1 mM NEAA (Gibco), 25 mM HEPES (Gibco), 5 μg/mL blasticidin (Goldbio), 100 μg/mL zeocin (Invitrogen), 600 μg/mL hygromycin (Goldbio). To prepare membranes, cells are scraped and collected in 1× Dulbecco's phosphate buffered saline (Corning) and then pelleted at 1000 RPM's. The cell pellet is reconstituted in membrane preparation buffer (20 mM HEPES, 6 mM MgCl2 and 1 mM EGTA, protease inhibitor tablets (Pierce) adjusted to pH 7.4), homogenized using a dounce homogenizer, and the resulting membrane fraction is pelleted by centrifugation at 12,000 RPM's. The membrane pellet is resuspended in membrane preparation buffer, snap freezed and stored at −80° C. for later use.
Binding Assay for hMC2 Antagonists Protocol:
The hMC2 membrane binding assay utilizes the following components: radiolabel [^125I]ACTH (1-39) Tyr23 (PerkinElmer), wheatgerm agglutinin coated PVT SPA beads (PerkinElmer), crude hMC2R membranes, and compounds. Briefly hMC2R membranes are incubated with SPA beads in binding assay buffer (50 mM HEPES, 5 mM MgCl2, 1 mM CaCl2, 0.2% BSA, protease inhibitor tablets (Pierce) adjusted to pH7.4) prior to assay initiation. A dose response of compound (the final concentration of compound are typically 0-10,000 nM), SPA membranes, and [^125I]ACTH (1-39) Tyr23 at a final concentration of 0.2 nM is plated in a 96-well assay plate and allowed to incubate 1.5 hours at room temperature. Assay plates are read using a Top Count NXT and Ki values for compounds are determined using a GraphPad Prism 6 non-linear regression analysis.

Chain of hMC2 receptor (Q01718 whole entry): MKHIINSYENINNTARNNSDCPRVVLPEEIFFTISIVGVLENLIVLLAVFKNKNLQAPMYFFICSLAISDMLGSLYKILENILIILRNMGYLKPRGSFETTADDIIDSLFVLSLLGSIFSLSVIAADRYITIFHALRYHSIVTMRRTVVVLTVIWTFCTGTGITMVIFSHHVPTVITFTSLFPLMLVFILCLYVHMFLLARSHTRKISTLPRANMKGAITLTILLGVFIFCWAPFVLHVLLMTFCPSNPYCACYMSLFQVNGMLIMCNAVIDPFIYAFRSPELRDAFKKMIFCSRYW
Chain of hMC2 receptor (Q8TCY5 whole entry partner): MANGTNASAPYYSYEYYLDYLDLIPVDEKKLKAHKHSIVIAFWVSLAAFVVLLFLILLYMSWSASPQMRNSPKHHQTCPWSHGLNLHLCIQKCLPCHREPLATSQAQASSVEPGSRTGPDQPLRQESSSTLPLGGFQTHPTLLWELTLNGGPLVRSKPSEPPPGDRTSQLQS

For `CCOc1ncccc1-c1ccc(N2CCN(C(=O)N3CCc4cccc(C(F)(F)F)c43)C[C@H]2CC)c(C(=O)NC2CN(C)C2)n1` [Compound 1-418, 2′-ethoxy-5-[(2R)-2-ethyl-4-[7-(trifluoromethyl)-2,3-dihydro-1H-indole-1-carbonyl]piperazin-1-yl]-N-(1-methylazetidin-3-yl)-[2,3′-bipyridine]-6-carboxamide], the pKi is > 8.00. The same measure for `CCOc1ncccc1-c1ccc(N2CCN(C(=O)C3(C(F)(F)F)CCCC3)C[C@H]2CC)c(C(=O)NCCN2CCC2)n1` [Compound 1-337, N-[2-(azetidin-1-yl)ethyl]-2′-ethoxy-5-[(2R)-2-ethyl-4-[1-(trifluoromethyl)cyclopentanecarbonyl]piperazin-1-yl]-[2,3′-bipyridine]-6-carboxamide]: > 8.00; for `CCOc1ncccc1-c1ccc(N2CCN(C(=O)c3ccc(Cl)cc3C(F)(F)F)C[C@H]2CC)c(C(=O)NC[C@H]2CCCN2)c1` [Compound 1-108, 2-[(2R)-4-[4-chloro-2-(trifluoromethyl)benzoyl]-2-ethylpiperazin-1-yl]-5-(2-ethoxypyridin-3-yl)-N-{[(2R)-pyrrolidin-2-yl]methyl}benzamide]: > 8.00. As to `CCOc1ccc(C(=O)N2CCN(c3ccc(-c4cccnc4OCC)nc3C(=O)NCCNC)[C@H](CC)C2)c(C(F)(F)F)c1` [Compound 1-137, 2′-ethoxy-5-[(2R)-4-[4-ethoxy-2-(trifluoromethyl)benzoyl]-2-ethylpiperazin-1-yl]-N-[2-(methylamino)ethyl]-[2,3′-bipyridine]-6-carboxamide], the pKi is > 8.00. Regarding `CCOc1ncccc1-c1ccc(N2CCN(C(=O)C34CCC(C(F)(F)F)(CC3)CC4)C[C@H]2CC)c(C(=O)N[C@@H]2CCNC2)n1` [Compound 1-274, 2′-ethoxy-5-[(2R)-2-ethyl-4-[4-(trifluoromethyl)bicyclo[2.2.2]octane-1-carbonyl]piperazin-1-yl]-N-[(3R)-pyrrolidin-3-yl]-[2,3′-bipyridine]-6-carboxamide], the pKi was > 8.00. For `CCOc1ncccc1-c1ccc(N2CCN(C(=O)N3CCc4cc(F)cc(Cl)c43)C[C@H]2CC)c(C(=O)NC2CN(C)C2)n1` [Compound 1-420, 5-[(2R)-4-(7-chloro-5-fluoro-2,3-dihydro-1H-indole-1-carbonyl)-2-ethylpiperazin-1-yl]-2′-ethoxy-N-(1-methylazetidin-3-yl)-[2,3′-bipyridine]-6-carboxamide] the value was > 8.00; for `CCOc1ncccc1-c1ccc(N2CCN(C(=O)c3ccc(OC)nc3C(F)(F)F)C[C@H]2CC)c(C(=O)N[C@@H]2CCN(C)C2)c1F` [Compound 1-270, 3-(2-ethoxypyridin-3-yl)-6-[(2R)-2-ethyl-4-[6-methoxy-2-(trifluoromethyl)pyridine-3-carbonyl]piperazin-1-yl]-2-fluoro-N-[(3R)-1-methylpyrrolidin-3-yl]benzamide], > 8.00; for `CCOc1ncccc1-c1ccc(N2CCN(C(=O)OC(C(C)(C)C)C(F)(F)F)C[C@H]2CC)c(C(=O)N[C@@H]2CCNC2)n1` (single isomer, unassigned) [Compound 1-367, (2S*)-1,1,1-trifluoro-3,3-dimethylbutan-2-yl (3R)-4-(2′-ethoxy-6-{[(3R)-pyrrolidin-3-yl]carbamoyl}-[2,3′-bipyridin]-5-yl)-3-ethylpiperazine-1-carboxylate], > 8.00. For the compound `CCOc1ccccc1-c1ccc(N2CCN(C(=O)c3ccc(Cl)cc3C(F)(F)F)C[C@H]2CC)c(C(=O)N[C@@H]2CCN(C)C2)n1` [Compound 1-206, 3-[(2R)-4-[4-chloro-2-(trifluoromethyl)benzoyl]-2-ethylpiperazin-1-yl]-6-(2-ethoxyphenyl)-N-[(3R)-1-methylpyrrolidin-3-yl]pyridine-2-carboxamide], the pKi is > 8.00. The same measure for `CCOc1ncccc1-c1ccc(N2CCN(C(=O)c3ccc(Cl)cc3C(F)(F)F)C[C@H]2CC)c(C(=O)N[C@@H]2CCNC2)c1F` [Compound 1-72, 6-[(2R)-4-[4-chloro-2-(trifluoromethyl)benzoyl]-2-ethylpiperazin-1-yl]-3-(2-ethoxypyridin-3-yl)-2-fluoro-N-[(3R)-pyrrolidin-3-yl]benzamide]: > 8.00. For `CCOc1ncccc1-c1ccc(N2CCN(C(=O)c3ccc(Cl)cc3C(F)(F)F)C[C@H]2CC)c(C(=O)N[C@@H]2CN3CCC2CC3)n1` [Compound 1-398, N-[(3S)-1-azabicyclo[2.2.2]octan-3-yl]-5-[(2R)-4-[4-chloro-2-(trifluoromethyl)benzoyl]-2-ethylpiperazin-1-yl]-2′-ethoxy-[2,3′-bipyridine]-6-carboxamide] the value was > 8.00; for `CCOc1ncccc1-c1ccc(N2CCN(C(=O)C3(C(F)(F)F)CCCC3)C[C@H]2CC)c(C(=O)NC[C@H]2CCCN2)n1` [Compound 1-324, 2′-ethoxy-5-[(2R)-2-ethyl-4-[1-(trifluoromethyl)cyclopentanecarbonyl]piperazin-1-yl]-N-{[(2R)-pyrrolidin-2-yl]methyl}-[2,3′-bipyridine]-6-carboxamide], > 8.00; for `CCOc1ncccc1-c1ccc(N2CCN(C(=O)c3ccc(Cl)cc3C(F)(F)F)C[C@H]2CC)c(C(=O)NCC2=NCCN2C)n1` [Compound 1-227, 5-[(2R)-4-[4-chloro-2-(trifluoromethyl)benzoyl]-2-ethylpiperazin-1-yl]-2′-ethoxy-N-[(1-methyl-4,5-dihydro-1H-imidazol-2-yl)methyl]-[2,3′-bipyridine]-6-carboxamide], > 8.00. Regarding `CCOc1ncccc1-c1ccc(N2CCN(C(=O)c3ccc(Cl)cc3N3CC[C@H](N)C3)C[C@H]2CC)c(C(=O)NCCN)c1` [Compound 1-57, N-(2-aminoethyl)-2-[(2R)-4-{2-[(3S)-3-aminopyrrolidin-1-yl]-4-chlorobenzoyl}-2-ethylpiperazin-1-yl]-5-(2-ethoxypyridin-3-yl)benzamide], the pKi was > 8.00.

For the compound `CCOc1ccccc1-c1ccc(N2CCN(C(=O)N3CCC[C@H]3C(F)(F)F)C[C@H]2CC)c(C(=O)N[C@@H]2CCNC2)n1` [Compound 1-342, 6-(2-ethoxyphenyl)-3-[(2R)-2-ethyl-4-[(2S)-2-(trifluoromethyl)pyrrolidine-1-carbonyl]piperazin-1-yl]-N-[(3R)-pyrrolidin-3-yl]pyridine-2-carboxamide], the pKi is > 8.00.

Regarding `CC[C@@H]1CN(C(=O)c2ccc(C(F)(F)F)cc2Cl)CCN1c1ccc(-c2ccccc2C(=O)OC)cc1C(=O)NCCN` [Compound 1-19, methyl (R)-3′-((2-aminoethyl)carbamoyl)-4′-(4-(2-chloro-4-(trifluoromethyl)benzoyl)-2-ethylpiperazin-1-yl)-[1,1′-biphenyl]-2-carboxylate], the pKi was 7.00 to 8.00.

`CCOc1ncccc1-c1ccc(N2CCN(C(=O)C3(C(F)(F)F)CCCC3)C[C@H]2CC)c(C(=O)NCC2=NCCN2C)n1` [Compound 1-415, 2′-ethoxy-5-[(2R)-2-ethyl-4-[1-(trifluoromethyl)cyclopentanecarbonyl]piperazin-1-yl]-N-[(1-methyl-4,5-dihydro-1H-imidazol-2-yl)methyl]-[2,3′-bipyridine]-6-carboxamide]: the pKi is > 8.00. The same measure for `CCOc1ccccc1-c1ccc(N2CCN(C(=O)N3CCCC3C(C)(C)C)C[C@H]2CC)c(C(=O)N[C@@H]2CCNC2)n1` (stereo partly drawn) [Compound 1-305, 3-[(2R)-4-(2-tert-butylpyrrolidine-1-carbonyl)-2-ethylpiperazin-1-yl]-6-(2-ethoxyphenyl)-N-[(3R)-pyrrolidin-3-yl]pyridine-2-carboxamide]: > 8.00; for `CCOc1ncccc1-c1ccc(N2CCN(C(=O)c3ccc(F)cc3C(F)(F)F)C[C@H]2CC)c(CN)n1` [Compound 2-20, 1-{2′-ethoxy-5-[(2R)-2-ethyl-4-[4-fluoro-2-(trifluoromethyl)benzoyl]piperazin-1-yl]-[2,3′-bipyridin]-6-yl}methanamine]: > 8.00; for `CCOc1ccccc1-c1ccc(N2CCN(C(=O)c3ccc(Cl)cc3Cl)C[C@H]2CC)c(C(=O)NCCN)c1` [Compound 1-15, (R)-N-(2-aminoethyl)-4-(4-(2,4-dichlorobenzoyl)-2-ethylpiperazin-1-yl)-2′-ethoxy-[1,1′-biphenyl]-3-carboxamide]: > 8.00. As to `CCOc1ccccc1-c1ccc(N2CCN(C(=O)c3ccc(C(F)(F)F)cc3Cl)C[C@H]2CC)c(CNC[C@H](C)O)c1` [Compound 2-2, (2S)-1-[({4-[(2R)-4-[2-chloro-4-(trifluoromethyl)benzoyl]-2-ethylpiperazin-1-yl]-2′-ethoxy-[1,1′-biphenyl]-3-yl}methyl)amino]propan-2-ol], the pKi was > 8.00.

In the case of `CCOc1ncccc1-c1ccc(N2CCN(C(=O)C3C4CC5CC(C4)CC3C5)C[C@H]2CC)c(C(=O)NC2CN(C)C2)n1` (stereo partly drawn) [Compound 1-238, 5-[(2R)-4-(adamantane-2-carbonyl)-2-ethylpiperazin-1-yl]-2′-ethoxy-N-(1-methylazetidin-3-yl)-[2,3′-bipyridine]-6-carboxamide], the pKi is > 8.00.
